We go through 15 molecules from patent US20250122219A1 (priority 2023, published 2025).

In brackets after ≈: the same amount, converted by molar mass. Like-named read-outs stand apart in the source and are kept apart here. Bounds are passed on as bounds.

Data set [1] can be described thus: Cytotoxicity assay in MT-4 cells. The class given is cell-based. As to conditions: human; uninfected MT-4 cells, 5 days incubation, Cell Titer Glo; read-out: MT4 CC50. Summed up:
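Viability read by Cell Titer Glo luminescence after 5 days at 37 °C. MT-4 cells, not infected, in complete RPMI (10% FBS), received compound dilution series. Base cytotoxicity set with […] puromycin.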

The nature of another data set: physchem. As to conditions: 23 °C, thermodynamic from solid, ambient temperature, 5 mg/mL dose concentration; for solubility thermodynamic at 24 h: FaSSIF; for solubility thermodynamic: aqueous buffer, PBS. The class given is physicochemical. As for the experimental part: Approximately 7 mg of each test compound as a dry powder was placed in a vial. Aliquots were weighed out for each assay media at 2 hour and 24 hour time points, to be analyzed. The appropriate buffer (FaSSIF or PBS) was added to each vial such that the final dose concentration of 5 mg/mL was achieved. […] The plate was sealed with a pierceable heat seal and analyzed by HPLC-UV.
A system QC (0.01 mg/mL Caffeine in DMSO) was injected every 12-15 injections. […] Results are reported using data obtained at 280 nm. The resulting peak areas were plotted against the known concentrations from the calibration and the filtrates are quantified with respect to the linear regression using Agilent OpenLab Intelligent Reporting Software. The results are reported electronically in mg/mL.

The next data set has as its system HIV-1 (IIIB). Briefly: Antiviral assay in MT-4 cells. It counts as cell-based. Summed up: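 Read-out: CellTiter-Glo luminescence after 5 days at 37 °C, reflecting survival of MT-4 cells infected with HIV-1 IIIB (1:250 fresh stock dilution) versus mock-infected. Compounds serially diluted into RPMI with 10% FBS; AZT at 5 μM served as positive control.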
Setting [2] is: Human immunodeficiency virus 1, MT4, 120 h, HIV-1 IIIB in MT-4 cells, 5 days incubation, Cell Titer Glo, read-out: MT4 EC50.

`CC1=NO[C@@]2(CC[C@H](C)N3C[C@H]2n2cc(C(=O)NCc4ccc(F)cc4F)c(=O)c(O[C@H](C)OC(=O)OC(C)C)c2C3=O)C1` (single isomer, unassigned) [Example 20]: the CC50 at 5 days in data set [1] turned out to be 35 µM. In addition, the solubility (thermodynamic) at 24 h in the data set “physchem” stood at 70 µg/mL (≈ 114 µM). The EC50 in the data set on HIV-1 (IIIB) (setting [2]) came out at 11.5 nM.

As to `CC1=NO[C@@]2(CC[C@H](C)N3C[C@H]2n2cc(C(=O)NCc4ccc(F)cc4F)c(=O)c(O[C@@H](C)OC(=O)OC(C)C)c2C3=O)C1` (single isomer, unassigned) [Example 21], the CC50 at 5 days in data set [1] was at least 50 µM. For the same molecule, the solubility (thermodynamic) at 24 h in “physchem” turned out to be 150 µg/mL (≈ 243 µM). In addition, the half-maximal effective concentration (EC50) in the data set on HIV-1 (IIIB) (setting [2]) turned out to be 26.4 nM.

Regarding `COCCOCCOCCOC(=O)Oc1c2n(cc(C(=O)NCc3ccc(F)cc3F)c1=O)[C@@H]1CN(C2=O)[C@@H](C)CC[C@]12CC(OC)=NO2` [Example 3, (3′S,5S,7′R)-10′-((2,4-difluorobenzyl)carbamoyl)-3-methoxy-3′-methyl-1′,11′-dioxo-1′,4′,5′,11′-tetrahydro-3′H,4H,7′H-spiro[isoxazole-5,6′-[2,7]methanopyrido[1,2-a][1,4]diazonin]-12′-yl (2-(2-(2-methoxyethoxy)ethoxy)ethyl) carbonate], the CC50 at 5 days in data set [1] was found to be 16.3 µM. In the data set “physchem”, this molecule yielded a thermodynamic solubility at 24 h of 470 µg/mL (≈ 679 µM). In addition, the EC50 in the data set with HIV-1 (IIIB) (setting [2]) was determined as 1.06 nM.

`COCCOC(=O)OCOc1c2n(cc(C(=O)NCc3ccc(F)cc3F)c1=O)[C@@H]1CN(C2=O)[C@@H](C)CC[C@]12CC(OC)=NO2` [Example 5, (((3′S,5S,7′R)-10′-((2,4-difluorobenzyl)carbamoyl)-3-methoxy-3′-methyl-1′,11′-dioxo-1′,4′,5′,11′-tetrahydro-3′H,4H,7′H-spiro[isoxazole-5,6′-[2,7]methanopyrido[1,2-a][1,4]diazonin]-12′-yl)oxy)methyl (2-methoxyethyl) carbonate]: in data set [1], the cytotoxic concentration (CC50) at 5 days came to 39.8 µM. Further, in “physchem”, the thermodynamic solubility was 39 µg/mL (≈ 61.5 µM) and the thermodynamic solubility at 24 h stood at 168 µg/mL (≈ 265 µM). Besides, the EC50 with HIV-1 (IIIB) (setting [2]) was 4.08 nM.

For `COCCOCCOC(=O)Oc1c2n(cc(C(=O)NCc3ccc(F)cc3F)c1=O)[C@@H]1CN(C2=O)[C@@H](C)CC[C@]12CC(C)=NO2` [Example 8, (3′S,5S,7′R)-10′-((2,4-difluorobenzyl)carbamoyl)-3,3′-dimethyl-1′,11′-dioxo-1′,4′,5′,11′-tetrahydro-3′H,4H,7′H-spiro[isoxazole-5,6′-[2,7]methanopyrido[1,2-a][1,4]diazonin]-12′-yl (2-(2-methoxyethoxy)ethyl) carbonate], in data set [1], the CC50 at 5 days came to 11.7 µM. Moreover, the solubility (thermodynamic) at 24 h in “physchem” was found to be 486 µg/mL (≈ 768 µM). Also, in the data set with HIV-1 (IIIB) (Human immunodeficiency virus 1, IIIB, MT4, 120 h, read-out: MT4 EC50 (nM)), the EC50 is 0.632 nM.

With `COCCOC(=O)OCOc1c2n(cc(C(=O)NCc3ccc(F)cc3F)c1=O)[C@@H]1CN(C2=O)[C@@H](C)CC[C@]12CC(C)=NO2` [Example 10, (((3′S,5S,7′R)-10′-((2,4-difluorobenzyl)carbamoyl)-3,3′-dimethyl-1′,11′-dioxo-1′,4′,5′,11′-tetrahydro-3′H,4H,7′H-spiro[isoxazole-5,6′-[2,7]methanopyrido[1,2-a][1,4]diazonin]-12′-yl)oxy)methyl (2-methoxyethyl) carbonate], the CC50 at 5 days in data set [1] stood at 31.7 µM. In the data set “physchem”, this molecule returned a thermodynamic solubility of 15 µg/mL (≈ 24.2 µM) and a thermodynamic solubility at 24 h of 35 µg/mL (≈ 56.6 µM). Besides, the EC50 in the data set with HIV-1 (IIIB) (setting [2]) came out at 6.4 nM.

Turning to `CC1=NO[C@@]2(CC[C@H](C)N3C[C@H]2n2cc(C(=O)NCc4ccc(F)cc4F)c(=O)c(OCOC(=O)OCCCCC(C)C)c2C3=O)C1` [Example 205, (((3′S,5S,7′R)-10′-((2,4-difluorobenzyl)carbamoyl)-3,3′-dimethyl-1′,11′-dioxo-1′,4′,5′,11′-tetrahydro-3′H,4H,7′H-spiro[isoxazole-5,6′-[2,7]methanopyrido[1,2-a][1,4]diazonin]-12′-yl)oxy)methyl (5-methylhexyl) carbonate], the CC50 at 5 days in data set [1] amounted to 23.1 µM. The EC50 with HIV-1 (IIIB) (setting [2]) turned out to be 2.47 nM.

With `COC1=NO[C@@]2(CC[C@H](C)N3C[C@H]2n2cc(C(=O)NCc4ccc(F)cc4F)c(=O)c(OCOC(=O)OCCCCC(C)C)c2C3=O)C1` [Example 206, (((3′S,5S,7′R)-10′-((2,4-difluorobenzyl)carbamoyl)-3-methoxy-3′-methyl-1′,11′-dioxo-1′,4′,5′,11′-tetrahydro-3′H,4H,7′H-spiro[isoxazole-5,6′-[2,7]methanopyrido[1,2-a][1,4]diazonin]-12′-yl)oxy)methyl (5-methylhexyl) carbonate], the CC50 at 5 days in data set [1] was 37.2 µM. Moreover, in the data set on HIV-1 (IIIB) (setting [2]), the EC50 is 2.44 nM.

With `CC1=NO[C@@]2(CC[C@H](C)N3C[C@H]2n2cc(C(=O)NCc4ccc(F)cc4F)c(=O)c(OCOC(=O)OCCCCCC(C)C)c2C3=O)C1` [Example 207, (((3′S,5S,7′R)-10′-((2,4-difluorobenzyl)carbamoyl)-3,3′-dimethyl-1′,11′-dioxo-1′,4′,5′,11′-tetrahydro-3′H,4H,7′H-spiro[isoxazole-5,6′-[2,7]methanopyrido[1,2-a][1,4]diazonin]-12′-yl)oxy)methyl (6-methylheptyl) carbonate], the CC50 at 5 days in data set [1] amounted to 11.3 µM. The EC50 in the data set on HIV-1 (IIIB) (setting [2]) was 0.564 nM.

Take `COC1=NO[C@@]2(CC[C@H](C)N3C[C@H]2n2cc(C(=O)NCc4ccc(F)cc4F)c(=O)c(OCOC(=O)OCCCCCC(C)C)c2C3=O)C1` [Example 208, (((3′S,5S,7′R)-10′-((2,4-difluorobenzyl)carbamoyl)-3-methoxy-3′-methyl-1′,11′-dioxo-1′,4′,5′,11′-tetrahydro-3′H,4H,7′H-spiro[isoxazole-5,6′-[2,7]methanopyrido[1,2-a][1,4]diazonin]-12′-yl)oxy)methyl (6-methylheptyl) carbonate]: the CC50 at 5 days in data set [1] came to 21.3 µM. Besides, the EC50 in the data set on HIV-1 (IIIB) (setting [2]) was found to be 0.594 nM.

For `CC1=NO[C@@]2(CC[C@H](C)N3C[C@H]2n2cc(C(=O)NCc4ccc(F)cc4F)c(=O)c(OCOC(=O)OCCCCCCCC(C)C)c2C3=O)C1` [Example 211, (((3′S,5S,7′R)-10′-((2,4-difluorobenzyl)carbamoyl)-3,3′-dimethyl-1′,11′-dioxo-1′,4′,5′,11′-tetrahydro-3′H,4H,7′H-spiro[isoxazole-5,6′-[2,7]methanopyrido[1,2-a][1,4]diazonin]-12′-yl)oxy)methyl (8-methylnonyl) carbonate], the CC50 at 5 days in data set [1] worked out at 36.7 µM. Also, the 50% effective concentration (EC50) in the data set on HIV-1 (IIIB) (setting [2]) stood at 3.73 nM.

On to `COC1=NO[C@@]2(CC[C@H](C)N3C[C@H]2n2cc(C(=O)NCc4ccc(F)cc4F)c(=O)c(OCOC(=O)OCCCCCCCC(C)C)c2C3=O)C1` [Example 212, (((3′S,5S,7′R)-10′-((2,4-difluorobenzyl)carbamoyl)-3-methoxy-3′-methyl-1′,11′-dioxo-1′,4′,5′,11′-tetrahydro-3′H,4H,7′H-spiro[isoxazole-5,6′-[2,7]methanopyrido[1,2-a][1,4]diazonin]-12′-yl)oxy)methyl (8-methylnonyl) carbonate], for which, in data set [1], the CC50 at 5 days was at least 50 µM. Moreover, in the data set on HIV-1 (IIIB) (setting [2]), the EC50 turned out to be 8.6 nM.

For the molecule `COC[C@@H](C)OC(=O)OCOc1c2n(cc(C(=O)NCc3ccc(F)cc3F)c1=O)[C@@H]1CN(C2=O)[C@@H](C)CC[C@]12CC(C)=NO2` [Example 213, (((3′S,5S,7′R)-10′-((2,4-difluorobenzyl)carbamoyl)-3,3′-dimethyl-1′,11′-dioxo-1′,4′,5′,11′-tetrahydro-3′H,4H,7′H-spiro[isoxazole-5,6′-[2,7]methanopyrido[1,2-a][1,4]diazonin]-12′-yl)oxy)methyl ((R)-1-methoxypropan-2-yl) carbonate], the CC50 at 5 days in data set [1] was at least 50 µM. The EC50 in the data set with HIV-1 (IIIB) (setting [2]) amounted to 8.29 nM.

Consider `COC[C@@H](C)OC(=O)OCOc1c2n(cc(C(=O)NCc3ccc(F)cc3F)c1=O)[C@@H]1CN(C2=O)[C@@H](C)CC[C@]12CC(OC)=NO2` [Example 214, (((3′S,5S,7′R)-10′-((2,4-difluorobenzyl)carbamoyl)-3-methoxy-3′-methyl-1′,11′-dioxo-1′,4′,5′,11′-tetrahydro-3′H,4H,7′H-spiro[isoxazole-5,6′-[2,7]methanopyrido[1,2-a][1,4]diazonin]-12′-yl)oxy)methyl ((R)-1-methoxypropan-2-yl) carbonate], for which the CC50 at 5 days in data set [1] is at least 50 µM. The EC50 with HIV-1 (IIIB) (setting [2]) is 6.25 nM.

On to `COC1=NO[C@@]2(CC[C@H](C)N3C[C@H]2n2cc(C(=O)NCc4ccc(F)cc4F)c(=O)c(OCOC(=O)OC[C@@H](C)OC)c2C3=O)C1` [Example 218, (((3′S,5S,7′R)-10′-((2,4-difluorobenzyl)carbamoyl)-3-methoxy-3′-methyl-1′,11′-dioxo-1′,4′,5′,11′-tetrahydro-3′H,4H,7′H-spiro[isoxazole-5,6′-[2,7]methanopyrido[1,2-a][1,4]diazonin]-12′-yl)oxy)methyl ((R)-2-methoxypropyl) carbonate], for which the CC50 at 5 days in data set [1] came to 32.5 µM. Moreover, the EC50 with HIV-1 (IIIB) (setting [2]) came out at 3.09 nM.
